Legend:
Experiment in all cases: relative viability (nuclei count vs DMSO), 5 days (fraction); higher = more cells survive
[1] = compound: COc1cc([C@@H]2c3cc4c(cc3[C@@H](O[C@@H]3O[C@@H]5CO[C@@H](C)O[C@H]5[C@H](O)[C@H]3O)[C@H]3COC(=O)[C@H]23)OCO4)cc(OC)c1O [Etoposide] + C[C@]1(O)C[C@@H](c2nc(-c3ccc4ccc(-c5ccccc5)nc4c3)c3c(N)nccn32)C1 [Linsitinib] (partner 1 µM)
In short: (§1)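 Relative viability equals treated-well nuclei counts divided by vehicle-well nuclei counts. Counts came from 4× images of lung cancer cell lines grown in 1536-well plates for 5 days after pin-tool dosing on the day after seeding. Dosing used one drug alone or a fixed anchor-drug dose plus five library-drug doses (not always all listed) in √10 steps, and values are medians of duplicate plates.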

[2] = compound: CC1=C(N=C(N=C1N)[C@H](CC(=O)N)NC[C@@H](C(=O)N)N)C(=O)N[C@@H]([C@H](C2=CN=CN2)OC3C(C(C(C(O3)CO)O)O)OC4C(C(C(C(O4)CO)O)OC(=O)N)O)C(=O)N[C@H](C)[C@H]([C@H](C)C(=O)N[C@@H]([C@@H](C)O)C(=O)NCCC5=NC(=CS5)C6=NC(=CS6)C(=O)NCCC[S+](C)C)O [Bleomycin] + Nc1ncn([C@H]2C[C@H](O)[C@@H](CO)O2)c(=O)n1 [Decitabine] (partner 2 µM); conditions: main component drawn
In short: as §1

[3] = compound: CC1=C(N=C(N=C1N)[C@H](CC(=O)N)NC[C@@H](C(=O)N)N)C(=O)N[C@@H]([C@H](C2=CN=CN2)OC3C(C(C(C(O3)CO)O)O)OC4C(C(C(C(O4)CO)O)OC(=O)N)O)C(=O)N[C@H](C)[C@H]([C@H](C)C(=O)N[C@@H]([C@@H](C)O)C(=O)NCCC5=NC(=CS5)C6=NC(=CS6)C(=O)NCCC[S+](C)C)O [Bleomycin]; conditions: main component drawn
In short: (§2)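 Only plates meeting two conditions passed: control CV below 25% and at least one doubling. Lung cancer cell lines, kept overnight at 37 °C in 1536-well plates, were pinned with five library-drug doses (not always all listed) √10 apart on vehicle-anchored plates and grown 5 days without medium change. A one-step fix, permeabilisation and Hoechst stain preceded 4× imaging and MetaXpress nuclear counting. Viability equals treated-well nuclei divided by vehicle-well nuclei, as the median over plates.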

[4] = compound: COc1cc([C@@H]2c3cc4c(cc3[C@@H](O[C@@H]3O[C@@H]5CO[C@@H](C)O[C@H]5[C@H](O)[C@H]3O)[C@H]3COC(=O)[C@H]23)OCO4)cc(OC)c1O [Etoposide]
In short: as §2

Cell Line UMC-11 has a relative viability ([1]; first compound 0.01 µM) of 0.962, a relative viability ([1]; first compound 0.03162 µM) of 1.05 and a relative viability ([1]; first compound 0.3162 µM) of 0.493. The relative viability ([1]; first compound 1 µM) was 0.302, the relative viability ([2]; first compound 0.01 µM) was 0.493 and the relative viability ([2]; first compound 0.03162 µM) was 0.509. For the same cell line, the relative viability ([2]; first compound 0.1 µM) was 0.473, the relative viability ([2]; first compound 0.3162 µM) was 0.528 and the relative viability ([2]; first compound 1 µM) was 0.404. The relative viability ([3]; 0.01 µM) was 0.936, the relative viability ([3]; 0.03162 µM) was 0.918 and the relative viability ([3]; 0.1 µM) was 0.922. The relative viability ([3]; 0.3162 µM) was 0.769, the relative viability ([3]; 1 µM) was 0.496 and the relative viability ([4]; 0.01 µM) was 0.999. It also gave a relative viability ([4]; 0.03162 µM) of 1.06, a relative viability ([4]; 0.1 µM) of 0.507 and a relative viability ([4]; 0.3162 µM) of 0.607. It also gave a relative viability ([4]; 1 µM) of 0.343.
